Earlier results, collected in patent US20220273698A1, “MEDICINAL AND/OR PHARMACEUTICAL COMPOSITIONS FOR INTRAVESICAL INSTILLATION, PREPARATION AND USE THEREOF” (priority 2019, published 2022).

Columns and labels:
[1] = oral medicine
[2] = taking PPS over a long time

Q: Which active agent absorbed [1] does the source give for pentosan polysulfate sodium [Elmiron] here?
A: The active agent absorbed was 5%.

Q: What about the side effect [2] of the same substance?
A: The side effect was “pigmentary maculopathy”.
